What was measured:
[1] = system: BT-549; assay: Combination screen of TAS-108 with a second compound, CellTiter-Glo; type: cell-based, human; settings: BT-549, in combination with TAS-108
[2] = system: HS 578T; assay: as above; settings: in combination with TAS-108
Method: (§1) Cells were treated with compounds alone or in combination for three days and CellTiter-Glo® Luminescent Cell Viability Assay (Promega Corp.) was used as the endpoint to measure cell viability.
(§2) Cells were cultured in RPMI with 10% fetal bovine serum and used between passage 2 and passage 20.
(§3) Other compounds used were purchased from commercial sources (Sigma, AK Scientific). 40 mM Compound stocks in 100% DMSO were made. Master plates were made with Janus (PerkinElmer), then further diluted and added to the cell plates with Matrix Platemate (Thermo) on Day 0.
(§4) CellTiter-Glo® Luminescent Cell Viability Assay (Promega Corp.) was used to measure ATP as an indicator of viable cells on Day 3 using Envision (PerkinElmer) and back up plate reader Analyst HT (MDS) and Gen5 (BioTek).
(§5) Relative Luminescent Units (RLU) were plotted against corresponding drug concentrations and fitted with a standard four parameter sigmoidal curve with custom coded R program. Percentage growth inhibition is calculated as: [(Ti−Tz)/(C−Tz)]×100 for concentrations for which Ti≧Tz and [(Ti−Tz)/Tz]×100 for concentrations for which Ti<Tz.
(§6) Twenty-five doses were tested for each pair of combinations.
(§7) N: no synergistic effect; Y: synergistic effect; y: weak synergistic effect.

[3] = system: MCF7; assay: as above; settings: MCF7, in combination with TAS-108
Method: as §1, §2, §3, §4, §5, §6, §7

[4] = system: MDA-MB-231; assay: as above; settings: MDA-MB-231, in combination with TAS-108
Method: as §1, §2, §3, §4, §5, §6, §7

[5] = system: MDA-MB-468; assay: as above; settings: MDA-MB-468, in combination with TAS-108
Method: as §1, §2, §3, §4, §5, §6, §7

[6] = system: T-47D; assay: as above; settings: in combination with TAS-108
Method: as §1, §2, §3, §4, §5, §6, §7

[7] = system: human mammary carcinoma cell lines; assay: Combination screen of TAS-108 with a second compound, all six breast lines; settings: number of the six breast cell lines with synergy, in combination with TAS-108
Method: as §1, §2, §3, §4, §5, §6, §7

CNC(=O)c1cc(Oc2ccc(NC(=O)Nc3ccc(Cl)c(C(F)(F)F)c3)cc2)ccn1 [Sorafenib]
Synergistic effect of TAS 108 paired with compound [1]: N | Synergistic effect of TAS 108 paired with compound [2]: N | Synergistic effect of TAS 108 paired with compound [3]: N | Synergistic effect of TAS 108 paired with compound [4]: N | Synergistic effect of TAS 108 paired with compound [5]: N | Synergistic effect of TAS 108 paired with compound [6]: N | Synergy # [7]: 0
